According to ChEMBL document CHEMBL4602661, “Immunosuppressive Nor-isopimarane Diterpenes from Cultures of the Fungicolous Fungus Xylaria longipes HFG1018” (J Nat Prod, 2020):

Legend:
[1] = Cytotoxicity against BALB/C mouse T lymphocytes assessed as cell viability at 40 uM after 8 to 10 hrs by CCK-8 assay relative to control; assay type: cell-based; conditions: read-out: Activity
[2] = Cytotoxicity against BALB/C mouse B lymphocytes assessed as cell viability at 40 uM after 8 to 10 hrs by CCK-8 assay relative to control; assay type: cell-based; conditions: read-out: Activity
T-cell = assay: Immunosuppressive activity against BALB/C mouse T lymphocytes assessed as reduction in concanavalin A-induced cell proliferation by measuring [3H]-thymidine uptake incubated for 8 hrs by Beta scintillation counting method; assay type: functional, cell-based
B-cell line = assay: Immunosuppressive activity against BALB/C mouse B lymphocytes assessed as reduction in LPS-induced cell proliferation by measuring [3H]-thymidine uptake incubated for 8 hrs by Beta scintillation counting method; assay type: functional, cell-based

C[C@]1(CCO)CCC2=C(C1)C(=O)C[C@H]1[C@](C)(O)CCC[C@]21C
viability at 40 µM [1]: > 85% | viability at 40 µM [2]: > 85%

C[C@@]12CCO[C@@H]1C1=CC[C@H]3[C@@](C)(O)[C@@H](O)CC[C@]3(C)[C@H]1CC2
viability at 40 µM [1]: > 85% | viability at 40 µM [2]: > 85%

C=C1CC[C@H]2[C@@](C)(CO)CCC[C@]2(C)[C@H]1CC/C(C)=C/CO
IC50 (T-cell): 15.6 µM | IC50 (B-cell line): 47.2 µM | viability at 40 µM [1]: > 85% | viability at 40 µM [2]: > 85%

C[C@]1(CCO)CC[C@H]2C(=CC[C@@H]3[C@]2(C)CCC[C@]3(C)O)C1
viability at 40 µM [1]: > 85% | viability at 40 µM [2]: > 85%

C[C@]12CC[C@H]3C(=CC[C@@H]4[C@]3(C)CCC[C@@]4(C)O)[C@H]1OC[C@@H]2O
viability at 40 µM [1]: > 85% | viability at 40 µM [2]: > 85%

C[C@]12CCC[C@@](C)(O)[C@@H]1CC=C1[C@H]3OC[C@@H](O)[C@@]3(C)CC[C@@H]12
IC50 (T-cell): 4 µM | IC50 (B-cell line): 46 µM | viability at 40 µM [1]: > 85% | viability at 40 µM [2]: > 85%

C[C@@]12CCO[C@@H]1C1=CC[C@H]3[C@@](O)(CO)CCC[C@]3(C)[C@H]1CC2
IC50 (T-cell): 11.1 µM | IC50 (B-cell line): 35.1 µM | viability at 40 µM [1]: > 85% | viability at 40 µM [2]: > 85%

C[C@@]12CCO[C@@H]1C1=CC[C@@H]3[C@](C)(CCC[C@@]3(C)O)[C@H]1CC2
IC50 (T-cell): 27.2 µM | IC50 (B-cell line): 40 µM | viability at 40 µM [1]: > 85% | viability at 40 µM [2]: > 85%

C[C@@]12CCO[C@@H]1C1=CC[C@H]3[C@H](O)CCC[C@]3(C)[C@H]1CC2
viability at 40 µM [1]: > 85% | viability at 40 µM [2]: > 85%

C[C@@]12CCO[C@@H]1C1=CC[C@H]3[C@](C)(O)[C@H](O)CC[C@]3(C)[C@H]1CC2
viability at 40 µM [1]: > 85% | viability at 40 µM [2]: > 85%

C[C@@]12CCO[C@@H]1C1=C[C@@H](O)[C@@H]3[C@](C)(CCC[C@]3(C)O)[C@H]1CC2
IC50 (T-cell): 14.9 µM | IC50 (B-cell line): 49.4 µM | viability at 40 µM [1]: > 85% | viability at 40 µM [2]: > 85%

C[C@]1(CCO)CC[C@H]2C(=CC[C@H]3[C@H](O)CCC[C@]23C)C1
viability at 40 µM [1]: > 85% | viability at 40 µM [2]: > 85%

CC1(O)CCC[C@]2(C)C3=C(C[C@@]4(C)CCO[C@@H]3C4)[C@@H](O)C[C@@H]12 (stereo partly drawn)
viability at 40 µM [1]: > 85% | viability at 40 µM [2]: > 85%

C[C@@]1(CCO)CC2=CC[C@@H]3[C@](C)(CCC[C@@]3(C)O)[C@H]2[C@H](O)C1
viability at 40 µM [1]: > 85% | viability at 40 µM [2]: > 85%

C[C@@]12CCO[C@@H]1C1=CC[C@H]3[C@H](CO)CCC[C@]3(C)[C@H]1CC2
IC50 (T-cell): 6.6 µM | IC50 (B-cell line): 38.2 µM | viability at 40 µM [1]: > 85% | viability at 40 µM [2]: > 85%

C[C@]1(CCO)CC=C2C(=CC[C@H]3[C@](C)(O)CCC[C@]23C)C1
viability at 40 µM [1]: > 85% | viability at 40 µM [2]: > 85%

C[C@@]12CCO[C@@H]1C1=CC[C@H]3[C@](C)(O)[C@@H](O)CC[C@]3(C)[C@H]1CC2
viability at 40 µM [1]: > 85% | viability at 40 µM [2]: > 85%

C[C@]1(CCO)CC[C@H]2C(=CC[C@@H]3[C@]2(C)CCC[C@@]3(C)O)C1
IC50 (T-cell): 1 µM | IC50 (B-cell line): 16.1 µM | viability at 40 µM [1]: > 85% | viability at 40 µM [2]: > 85%

C[C@@]12CCO[C@@H]1C1=CC[C@H]3[C@](C)(CO)CCC[C@]3(C)[C@H]1CC2
viability at 40 µM [1]: > 85% | viability at 40 µM [2]: > 85%

C[C@@H]1C[C@H]2[C@@H]3CCC4=CC(=O)C=C[C@]4(C)[C@@]3(F)[C@@H](O)C[C@]2(C)[C@@]1(O)C(=O)CO [DEXAMETHASONE]
IC50 (T-cell): 1.6 µM | IC50 (B-cell line): 0.8 µM

C[C@@]12CCO[C@@H]1C1=CC[C@@H]3[C@](C)(CCC[C@]3(C)O)[C@H]1CC2
IC50 (T-cell): 21.1 µM | IC50 (B-cell line): 51.8 µM | viability at 40 µM [1]: > 85% | viability at 40 µM [2]: > 85%
